“Also recorded” adds a separate entry of the source. m = 2'-O-methyl; r = 2'-OH (RNA)
Legend:
TLR7/8 = assay: Cytokine induction in human PBMCs by immunostimulatory RNA, alone or co-formulated with modified ssRNA in the same SNALP/lipid particle; type: cell-based; conditions: for immunostimulatory effects (IFN-α induction) of ApoB antisense ssRNA when co-formulated / immunostimulatory effects (IFN-α induction) of ApoB siRNA duplex when co-formulated: co-formulated in the same SNALP; for immunostimulatory effects (IFN-α induction) of ApoB antisense ssRNA when co-formulated: 1:1 molar ratio; for immunostimulatory effects (IFN-α induction) of ApoB siRNA duplex when co-formulated: equimolar
Protocol: (§1) All RNA molecules used in this study were heated at 90° C. for 3 min. and then placed at 37° C. for 60 min. Non-denaturing PAGE analysis on a 20% polyacrylamide gel was performed to confirm that ssRNA molecules were intact and that no duplexes had formed upon heating. The RNA molecules were encapsulated in a SNALP formulation comprising PEG-cDMA:DLinDMA:cholesterol:DSPC in a 2:40:48:10 mol % ratio (2:40 SNALP), prepared using a syringe press process.
(§2) Fresh human peripheral blood mononuclear cells (PBMCs) were isolated and seeded at about 3×10^5 cells/well in a total volume of 180 μl. Next, 20 μl of the appropriate SNALP diluted in PBS or 10 μl of naked TLR agonist were added to the PBMCs. For time course experiments, PBMCs were pretreated with UmodS ssRNA or a control and the appropriate naked TLR agonist was added at 0, 0.5, or 2 hours after pretreatment. When the SNALP and naked TLR agonist were added separately, the SNALP was added first followed by the naked TLR agonist. At t=24 hr., the cell supernatant was harvested and IFN-α and/or IL-6 levels were determined using ELISA.
The ssRNA molecules used in this study were heated at 90° C. for 3 min. and then placed at 37° C. for 60 min to disrupt any potential secondary structure. Non-denaturing PAGE analysis on a 20% polyacrylamide gel was performed to confirm that ssRNA molecules were intact and that no duplexes had formed upon heating. siRNA duplexes were prepared by annealing equimolar concentrations of two deprotected and desalted ssRNA oligonucleotides using standard procedures. Formation of annealed siRNA duplexes was confirmed by non-denaturing PAGE analysis on a 20% polyacrylamide gel. The RNA molecules were encapsulated in a 2:40 SNALP formulation prepared using a syringe press process.
Fresh human peripheral blood mononuclear cells (PBMCs) were isolated and seeded at about 3×10^5 cells/well in a total volume of 180 μl. Next, 20 μl of the appropriate SNALP diluted in PBS were added to the PBMCs. At t=24 hr., the cell supernatant was harvested and IFN-α and/or IL-6 levels were determined using an enzyme-linked immunosorbent assay (ELISA). For example, IFN-α and IL-6 levels can be measured using a sandwich ELISA kit available from PBL Biomedical (Piscataway, N.J.) and eBioscience (San Diego, Calif.), respectively.
(§3) Lipid Encapsulation of RNA and ODN. RNA or ODN were encapsulated in liposomes by a process of spontaneous vesicle formation as described in Judge et al., supra, and Jeffs et al., Pharm. Res., 22:362-372 (2005).
(§4) Cell Isolation and Culture. Human PBMCs were isolated from whole blood of healthy donors by a standard Ficoll-Hypaque density centrifugation. Blood was diluted 1:1 with PBS, layered onto Ficoll-Paque Plus, and centrifuged at 1600 RPM for 30 min. PBMCs were washed in PBS twice followed by resuspension in complete media (RPMI 1640, 10% heat inactivated FBS, 2 mM L-glutamine, and 1% penicillin/streptomycin). PBMCs were plated at 2.5×10^5 cells/well in 96 well plates for cytokine induction assays.
(§5) Loxoribine (InvivoGen; San Diego, Calif.), polyIC (Sigma-Aldrich; St. Louis, Mo.), and formulated nucleic acids were diluted in PBS and added to either human PBMC or Flt3L DC cultures. Cells were incubated 24 h at 37° C. before supernatants were assayed for cytokines by ELISA.
(§6) Cytokine ELISA. All cytokines were quantified using sandwich ELISA kits according to the manufacturer's instructions. These were mouse and human IFN-α (PBL Biomedical; Piscataway, N.J.) and IL-6 (eBioscience; San Diego, Calif.).

TLR7 = target: T1, TLR7 (Homo sapiens, UniProt Q9NYK1); assay: Loxoribine (TLR7 agonist)-induced IFN-α/IL-6 production in human PBMCs; type: cell-based; conditions: for reduction of Lox induced IFN-α / reduction of Lox induced IL-6: 300 μM Lox, formulated 2′OMe RNA 1.5 μg/ml (~0.2 μM), 24 h, replicate experiments; for IL-6 levels induced by naked loxoribine / level of IFN-α induced by naked loxoribine: SNALP-encapsulated ssRNA added before naked agonist, supernatant at 24 hr, ELISA
T1 construct: Human PBMCs were isolated from whole blood of healthy donors; endogenous in cells; host or cells: primary human PBMCs from healthy donors
T1 sequence (Q9NYK1 27-1049): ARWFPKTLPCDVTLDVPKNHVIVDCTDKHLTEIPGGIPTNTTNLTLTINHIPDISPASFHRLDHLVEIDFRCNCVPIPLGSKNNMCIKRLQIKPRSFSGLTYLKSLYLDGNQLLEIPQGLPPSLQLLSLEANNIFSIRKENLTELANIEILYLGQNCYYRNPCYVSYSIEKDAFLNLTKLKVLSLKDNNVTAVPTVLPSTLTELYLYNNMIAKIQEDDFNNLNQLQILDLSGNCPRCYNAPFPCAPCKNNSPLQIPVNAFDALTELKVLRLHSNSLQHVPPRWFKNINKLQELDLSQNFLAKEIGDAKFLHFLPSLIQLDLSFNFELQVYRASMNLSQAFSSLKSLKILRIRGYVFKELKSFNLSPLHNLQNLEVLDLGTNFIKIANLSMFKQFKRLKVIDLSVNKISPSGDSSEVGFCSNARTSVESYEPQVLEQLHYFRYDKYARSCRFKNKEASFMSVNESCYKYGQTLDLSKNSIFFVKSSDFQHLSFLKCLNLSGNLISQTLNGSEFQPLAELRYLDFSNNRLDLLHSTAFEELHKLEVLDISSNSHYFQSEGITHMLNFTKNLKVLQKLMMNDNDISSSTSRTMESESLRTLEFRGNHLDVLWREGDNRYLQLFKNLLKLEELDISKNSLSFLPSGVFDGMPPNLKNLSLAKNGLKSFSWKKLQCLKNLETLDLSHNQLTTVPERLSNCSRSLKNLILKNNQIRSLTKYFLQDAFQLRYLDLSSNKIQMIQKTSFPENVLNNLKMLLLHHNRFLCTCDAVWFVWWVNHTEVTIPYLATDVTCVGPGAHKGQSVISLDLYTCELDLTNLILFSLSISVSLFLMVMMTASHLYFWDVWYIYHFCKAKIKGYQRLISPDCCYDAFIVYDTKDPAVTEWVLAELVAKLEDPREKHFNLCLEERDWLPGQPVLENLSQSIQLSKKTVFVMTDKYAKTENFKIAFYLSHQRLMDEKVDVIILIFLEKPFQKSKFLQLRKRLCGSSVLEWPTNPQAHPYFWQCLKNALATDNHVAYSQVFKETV
Protocol: as §1, §2, §3, §4, §5, §6

[1] = human PBMCs, co-encapsulated in equimolar amounts in the same SNALP, 24 hr
[2] = human PBMCs, 24 h, listed as Luc-mU
[3] = human PBMCs, equimolar amounts in the same SNALP, 24 h

Substance	IFN-α production induced by the RNA alone (TLR7/8; human PBMC cultures, lipid-formulated RNA alone, doses 0.1 to 3 μg/ml)	IFN-α levels induced by TLR7/8 agonist RNA40 (TLR7/8; [1])	IL-6 levels induced by TLR7/8 agonist RNA40 (TLR7/8; [1])	immunostimulatory effects (IFN-α induction) of ApoB antisense ssRNA when co-formulated (TLR7/8; human PBMCs, 24 h)	immunostimulatory effects (IFN-α induction) of ApoB antisense ssRNA when co-formulated (TLR7/8; [2])	immunostimulatory effects (IFN-α induction) of ApoB siRNA duplex when co-formulated (TLR7/8; human PBMCs, 24 h)	immunostimulatory effects (IFN-α induction) of ApoB siRNA duplex when co-formulated (TLR7/8; [2])	IFN-α levels induced by β-gal antisense ssRNA when co-encapsulated (TLR7/8; [3])	reduction of Lox induced IFN-α (TLR7)	reduction of Lox induced IL-6 (TLR7)	IL-6 levels induced by naked loxoribine (TLR7)	level of IFN-α induced by naked loxoribine (TLR7)	cytokine production from human PBMCs when co-formulated with immunostimulatory RNA (TLR7/8; human PBMCs, co-formulated with immunostimulatory ssRNA)	IL-6 levels induced by β-gal antisense ssRNA when co-encapsulated (TLR7/8; [3])	IFN-α levels induced by β-gal antisense ssRNA when co-encapsulated (TLR7/8; human PBMCs, equimolar amounts in the same SNALP, 24 h, listed as (mU)21)
Luc UmodS: Luc sense strand ssRNA with 2′OMe at uridines: GAmUmUAmUGmUCCGGmUmUAmUGmUAUU (sense GAUUAUGUCCGGUUAUGUAUU; sugars from the 5' end rrmmrmrmrrrrmmrmrmrrr, backbone not given here)	do not induce measurable IFN-α production	significantly reduce	significantly reduce	abolished	abrogated	significantly reduced	abrogated	abrogated	55+/−16%	62+/−10%	inhibited	dose-dependently decrease; also recorded: inhibited			
polyUmod21: 2′OMe-uridine homopolymer of 21 nucleotides in length (UUUUUUUUUUUUUUUUUUUUU; all 2'-O-methyl, backbone not given here)								significantly reduced	72+/−5%	80+/−1%	inhibited	inhibited	equally as effective at inhibiting cytokine production	significantly reduced	inhibit

Source: patent publication US20080171716A1, “NUCLEIC ACID MODULATION OF TOLL-LIKE RECEPTOR-MEDIATED IMMUNE STIMULATION” (Protiva Biotherapeutics, Inc., priority 2006, published 2008)
